According to patent US20260062387A1, “SALT-INDUCIBLE KINASE INHIBITOR COMPOUND AND PHARMACEUTICAL COMPOSITION INCLUDING THE SAME” (MITSUBISHI TANABE PHARMA CORPORATION, priority 2023, published 2026):

How the values were obtained:
Assay type in all cases: biochemical
[1] = biological target: GST-tagged SIK3 (Homo sapiens (Human), UniProt Q9Y2K2); assay: SIK3 inhibition test (ADP-Glo Max Assay); conditions: enzyme 100 nM, AMARA Peptide 100 μM, ATP 1 mM, 2 hours room temperature
Procedure, shortened: (§1)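 ADP formed was detected by luciferase luminescence after a 2 h room-temperature reaction with 1 mM ATP, 5 mM MgCl2 and AMARA peptide at 200 μM (SIK1, SIK2) or 100 μM (SIK3). Final GST-enzyme levels were 20 nM SIK1, 3 nM SIK2 and 100 nM SIK3. IC50 came from 16-point concentration-response data.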

[2] = biological target: GST-tagged SIK1 (Homo sapiens (Human), UniProt P57059); assay: SIK1 inhibition test (ADP-Glo Max Assay); conditions: enzyme 20 nM, AMARA Peptide 200 μM, ATP 1 mM, 2 hours room temperature
Procedure, shortened: as §1

[3] = biological target: GST-tagged SIK2 (Homo sapiens (Human), UniProt Q9H0K1); assay: SIK2 inhibition test (ADP-Glo Max Assay); conditions: enzyme 3 nM, AMARA Peptide 200 μM, ATP 1 mM, 2 hours room temperature
Procedure, shortened: as §1

Chain of GST-tagged SIK1 (P57059 whole entry): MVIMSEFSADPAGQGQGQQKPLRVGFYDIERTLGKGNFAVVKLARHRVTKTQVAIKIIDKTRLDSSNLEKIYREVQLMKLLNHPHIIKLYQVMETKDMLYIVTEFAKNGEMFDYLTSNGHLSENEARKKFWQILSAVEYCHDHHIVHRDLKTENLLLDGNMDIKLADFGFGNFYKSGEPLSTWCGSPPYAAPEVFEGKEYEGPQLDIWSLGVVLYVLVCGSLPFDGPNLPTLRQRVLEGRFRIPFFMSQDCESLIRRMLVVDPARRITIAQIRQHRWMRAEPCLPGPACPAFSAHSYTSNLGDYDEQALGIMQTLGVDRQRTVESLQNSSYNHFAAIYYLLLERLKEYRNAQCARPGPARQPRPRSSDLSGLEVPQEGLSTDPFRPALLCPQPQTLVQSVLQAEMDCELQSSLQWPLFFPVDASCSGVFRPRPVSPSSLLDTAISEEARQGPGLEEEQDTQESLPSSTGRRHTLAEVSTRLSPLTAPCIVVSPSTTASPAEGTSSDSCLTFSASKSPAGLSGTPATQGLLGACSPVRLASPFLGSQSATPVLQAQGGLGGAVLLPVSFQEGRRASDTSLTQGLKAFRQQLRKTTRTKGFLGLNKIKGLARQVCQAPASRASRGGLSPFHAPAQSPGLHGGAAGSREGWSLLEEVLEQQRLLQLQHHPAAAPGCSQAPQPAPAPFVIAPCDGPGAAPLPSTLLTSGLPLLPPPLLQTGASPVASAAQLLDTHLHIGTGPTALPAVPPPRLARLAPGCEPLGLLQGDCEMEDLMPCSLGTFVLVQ
Chain of GST-tagged SIK3 (Q9Y2K2 whole entry): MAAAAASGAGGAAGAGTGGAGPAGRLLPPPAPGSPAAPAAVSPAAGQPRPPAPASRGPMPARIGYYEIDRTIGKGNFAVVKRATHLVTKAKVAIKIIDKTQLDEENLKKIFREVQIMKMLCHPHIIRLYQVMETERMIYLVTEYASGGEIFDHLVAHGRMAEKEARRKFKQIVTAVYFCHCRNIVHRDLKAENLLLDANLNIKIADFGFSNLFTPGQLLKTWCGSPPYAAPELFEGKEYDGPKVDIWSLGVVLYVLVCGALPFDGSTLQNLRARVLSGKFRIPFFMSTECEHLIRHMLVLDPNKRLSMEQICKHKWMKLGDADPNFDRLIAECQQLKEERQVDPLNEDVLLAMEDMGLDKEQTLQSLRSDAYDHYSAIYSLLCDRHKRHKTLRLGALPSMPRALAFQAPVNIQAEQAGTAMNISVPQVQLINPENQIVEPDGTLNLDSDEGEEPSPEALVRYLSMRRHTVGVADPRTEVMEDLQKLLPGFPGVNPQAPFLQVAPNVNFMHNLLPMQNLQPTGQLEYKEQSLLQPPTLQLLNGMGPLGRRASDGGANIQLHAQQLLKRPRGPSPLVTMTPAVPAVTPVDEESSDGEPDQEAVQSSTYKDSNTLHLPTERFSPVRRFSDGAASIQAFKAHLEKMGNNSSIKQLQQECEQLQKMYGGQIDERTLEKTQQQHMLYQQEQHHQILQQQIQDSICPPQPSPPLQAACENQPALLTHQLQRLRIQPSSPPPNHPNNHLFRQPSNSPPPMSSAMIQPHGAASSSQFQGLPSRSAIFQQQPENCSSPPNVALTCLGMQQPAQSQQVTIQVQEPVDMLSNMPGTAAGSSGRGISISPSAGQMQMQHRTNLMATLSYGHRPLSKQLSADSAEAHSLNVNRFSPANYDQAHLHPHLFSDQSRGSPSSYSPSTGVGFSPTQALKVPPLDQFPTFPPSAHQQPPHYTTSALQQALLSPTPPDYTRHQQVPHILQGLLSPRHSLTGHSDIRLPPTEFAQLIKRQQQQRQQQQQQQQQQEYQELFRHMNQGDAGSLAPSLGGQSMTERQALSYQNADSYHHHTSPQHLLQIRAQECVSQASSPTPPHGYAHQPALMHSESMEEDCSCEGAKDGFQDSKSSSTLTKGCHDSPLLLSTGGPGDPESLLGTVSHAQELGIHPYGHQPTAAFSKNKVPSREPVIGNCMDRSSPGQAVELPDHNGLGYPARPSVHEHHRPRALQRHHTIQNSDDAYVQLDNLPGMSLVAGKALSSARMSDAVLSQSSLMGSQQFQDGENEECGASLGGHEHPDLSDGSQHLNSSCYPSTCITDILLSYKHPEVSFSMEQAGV
Chain of GST-tagged SIK2 (Q9H0K1 whole entry): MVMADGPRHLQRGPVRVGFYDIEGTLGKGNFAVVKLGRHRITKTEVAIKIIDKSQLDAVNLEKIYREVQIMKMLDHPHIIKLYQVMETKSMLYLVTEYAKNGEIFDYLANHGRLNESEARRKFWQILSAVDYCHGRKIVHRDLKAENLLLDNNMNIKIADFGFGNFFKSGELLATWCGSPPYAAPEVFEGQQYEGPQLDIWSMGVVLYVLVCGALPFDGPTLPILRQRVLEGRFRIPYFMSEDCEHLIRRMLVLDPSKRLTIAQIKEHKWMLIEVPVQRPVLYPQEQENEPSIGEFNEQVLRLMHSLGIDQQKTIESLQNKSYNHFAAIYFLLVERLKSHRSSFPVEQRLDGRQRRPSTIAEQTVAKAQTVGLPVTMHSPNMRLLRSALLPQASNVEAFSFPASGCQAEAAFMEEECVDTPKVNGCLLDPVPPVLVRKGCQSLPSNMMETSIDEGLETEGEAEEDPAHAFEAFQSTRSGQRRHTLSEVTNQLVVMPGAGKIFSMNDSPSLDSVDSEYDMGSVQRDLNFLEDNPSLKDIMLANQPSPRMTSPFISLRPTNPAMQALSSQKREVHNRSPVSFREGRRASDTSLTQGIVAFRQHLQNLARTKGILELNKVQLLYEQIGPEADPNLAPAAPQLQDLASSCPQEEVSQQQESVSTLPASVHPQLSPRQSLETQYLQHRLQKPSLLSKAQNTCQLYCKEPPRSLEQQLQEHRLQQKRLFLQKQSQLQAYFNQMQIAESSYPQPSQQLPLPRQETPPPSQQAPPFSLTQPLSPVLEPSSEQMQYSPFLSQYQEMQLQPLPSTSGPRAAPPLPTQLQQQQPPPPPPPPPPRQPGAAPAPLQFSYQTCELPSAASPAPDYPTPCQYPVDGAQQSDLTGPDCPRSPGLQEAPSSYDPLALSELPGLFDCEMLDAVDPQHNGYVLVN

| Structure (SMILES) | IC50 [1] [nM] | IC50 [2] [nM] | IC50 [3] [nM] |
| --- | --- | --- | --- |
| COc1cc(-c2c3c(C#N)cc(-c4cnn(CCC5(O)CCC5)c4)cc3nn2C)cc(OC(F)F)c1C(=O)NCC1(F)CC1 [Example 122, 4-[4-cyano-6-[1-[2-(1-hydroxycyclobutyl)ethyl]pyrazol-4-yl]-2-methylindazol-3-yl]-2-(difluoromethoxy)-N-[(1-fluorocyclopropyl)methyl]-6-methoxybenzamide] | 4.4 | 15.8 | 7.9 |
| COc1cc(-c2c3c(C#N)cc(-c4cnn(CCC5(O)CCC5)c4)cc3nn2C)cc(OC(F)F)c1C(=O)N[C@@H]1CC1(F)F [Example 123, 4-[4-cyano-6-[1-[2-(1-hydroxycyclobutyl)ethyl]pyrazol-4-yl]-2-methylindazol-3-yl]-N-[(1R)-2,2-difluorocyclopropyl]-2-(difluoromethoxy)-6-methoxybenzamide] | 0.6 | 4.4 | 1.7 |
| COc1cc(-c2c3c(C#N)cc(-c4cnn(C[C@H](O)C(F)(F)F)c4)cc3nn2C)cc(OC(F)F)c1C(=O)N[C@@H]1CC1(F)F [Example 124, 4-[4-cyano-2-methyl-6-[1-[(2S)-3,3,3-trifluoro-2-hydroxypropyl]pyrazol-4-yl]indazol-3-yl]-N-[(1R)-2,2-difluorocyclopropyl]-2-(difluoromethoxy)-6-methoxybenzamide] | 1.6 | 8 | 1.1 |
| COc1cc(-c2c3c(C#N)cc(-c4cnn(C[C@H](C)O)c4)cc3nn2C)cc(OC(F)F)c1C(N)=O [Example 125, 4-[4-cyano-6-[1-[(2S)-2-hydroxypropyl]pyrazol-4-yl]-2-methylindazol-3-yl]-2-(difluoromethoxy)-6-methoxybenzamide] | 2.9 | 11.5 | 1.8 |
| COc1cc(-c2c3c(OC)cc(-c4cnn(C)c4)cc3nn2C)cc(OC(F)F)c1C(N)=O [Example 130, 2-(difluoromethoxy)-6-methoxy-4-[4-methoxy-2-methyl-6-(1-methylpyrazol-4-yl)indazol-3-yl]benzamide] | 16.8 | 16.9 | 2.1 |
| COc1cc(-c2c3c(C#N)cc(-c4cnn(C(C)C)c4)cc3nn2C)cc(OC(F)F)c1C(N)=O [Example 132, 4-[4-cyano-2-methyl-6-(1-propan-2-ylpyrazol-4-yl)indazol-3-yl]-2-(difluoromethoxy)-6-methoxybenzamide] | 5.8 | 16.1 | 4 |

More lines, now with the values ahead:

| IC50 [1] [nM] | IC50 [2] [nM] | IC50 [3] [nM] | Structure (SMILES) |
| --- | --- | --- | --- |
| 0.7 | 7.8 | 3.5 | COc1cc(-c2c3c(C(F)F)cc(-c4cnn(CC[C@@H](C)O)c4)cc3nn2C)cc(OC(F)F)c1C(=O)N[C@@H]1CC1(F)F [Example 120, N-[(1R)-2,2-difluorocyclopropyl]-2-(difluoromethoxy)-4-[4-(difluoromethyl)-6-[1-[(3R)-3-hydroxybutyl]pyrazol-4-yl]-2-methylindazol-3-yl]-6-methoxybenzamide] |
| 1.1 | 9.5 | 4.8 | COc1cc(-c2c3c(C(F)F)cc(-c4cnn(C[C@H]5C[C@@H](O)C5)c4)cc3nn2C)cc(OC(F)F)c1C(=O)N[C@@H]1CC1(F)F [Example 121, N-[(1R)-2,2-difluorocyclopropyl]-2-(difluoromethoxy)-4-[4-(difluoromethyl)-6-[1-[(cis-3-hydroxycyclobutyl)methyl]pyrazol-4-yl]-2-methylindazol-3-yl]-6-methoxybenzamide] |
| 6.6 | 5.1 | 0.9 | COc1cc(-c2c3c(C#N)cc(-c4cnn(C)c4)cc3nn2C)cc2c1C(=O)NCC2(C)C [Example 129, 3-(8-methoxy-4,4-dimethyl-1-oxo-2,3-dihydroisoquinolin-6-yl)-2-methyl-6-(1-methylpyrazol-4-yl)indazol-4-carbonitrile] |
| 16.3 | 12.2 | 4.5 | COc1cc(-c2c3c(OC(F)F)cc(-c4cnn(C)c4)cc3nn2C)cc(OC(F)F)c1C(N)=O [Example 131, 2-(difluoromethoxy)-4-[4-(difluoromethoxy)-2-methyl-6-(1-methylpyrazol-4-yl)indazol-3-yl]-6-methoxybenzamide] |
